According to US20230263822A1, “MODULATION OF FACTOR 11 EXPRESSION” (Ionis Pharmaceuticals, Inc., priority 2008, published 2023):

Tests used:
human Factor 11 mRNA [1] = test: Dose-dependent inhibition of human Factor 11 in HepB3 cells, lipofectin (Example 7); type: cell-based; settings: for percent inhibition of Factor 11 mRNA relative to untreated control cells: ~16 hours
Description: Cells were plated at a density of 4,000 cells per well and transfected using lipofectin reagent with 2.3 nM, 4.7 nM, 9.4 nM, 18.75 nM, 37.5 nM, and 75 nM concentrations of antisense oligonucleotide, as specified in Table 14. After a treatment period of approximately 16 hours, RNA was isolated from the cells and human Factor 11 mRNA levels were measured by quantitative real-time PCR. Human Factor 11 primer probe set RTS 2966 was used to measure mRNA levels. Factor 11 mRNA levels were adjusted according to total RNA content, as measured by RIBOGREEN. Results are presented as percent inhibition of Factor 11, relative to untreated control cells.

[2] = Tolerability in CD1 mice: organ weight (Example 33); type: in vivo; settings: 50 mg/kg s.c. twice a week, vs PBS control, normalized to body weight
Description: Three days after the last dose was administered to all groups, the mice were sacrificed.

human Factor 11 mRNA [3] = test: Dose-dependent inhibition of human Factor 11 in HepG2 cells, lipofectin 2.34-75 nM (Example 5); type: cell-based; settings: for percent inhibition of human Factor 11 mRNA relative to untreated control cells: ~16 hours
Description: Cells were plated at a density of 10,000 cells per well and transfected using lipofectin reagent with 2.34 nM, 4.69 nM, 9.375 nM, 18.75 nM, 37.5 nM, and 75 nM concentrations of antisense oligonucleotide, as specified in Table 11. After a treatment period of approximately 16 hours, RNA was isolated from the cells and human Factor 11 mRNA levels were measured by quantitative real-time PCR. Human Factor 11 primer probe set RTS 2966 was used to measure mRNA levels. Factor 11 mRNA levels were adjusted according to total RNA content, as measured by RIBOGREEN. Results are presented as percent inhibition of human Factor 11, relative to untreated control cells.

[4] = test system: IL-1β, IL-6, IFN-γ, TNF-α, IL-8, MIP-1α, MCP-1, MIP-1β, RANTES; test: Cytokine and chemokine assays in cynomolgus monkeys (Example 46); type: in vivo
Description: (§1) Groups, each consisting of two male and two female monkeys, were injected subcutaneously with 25 mg/kg of ISIS 416850, ISIS 449709, ISIS 445522, ISIS 449710, ISIS 449707, ISIS 449711, ISIS 449708, 416858, and ISIS 445531. Antisense oligonucleotide was administered to the monkeys at 25 mg/kg three times per week for week 1 and 25 mg/kg twice per week for weeks 2 to 8. A control group, consisting of two male and two female monkeys was injected subcutaneously with PBS according to the same dosing regimen. Body weights were taken 14 days and 7 days before the start of treatment and were then measured weekly throughout the treatment period. Blood samples were collected 14 days and 5 days before the start of treatment and subsequently several times during the dosing regimen for PT and aPTT measurements, and measurement of various hematologic factors. On day 55, the monkeys were euthanized by exsanguination while under deep anesthesia, and organs harvested for further analysis.
Blood samples obtained from all monkey groups were sent to Pierce Biotechnology (Woburn, Mass.) for measurements of chemokine and cytokine levels. Levels of IL-1β, IL-6, IFN-γ, and TNF-α were measured using the respective primate antibodies and levels of IL-8, MIP-1α, MCP-1, MIP-1β and RANTES were measured using the respective cross-reacting human antibodies. Measurements were taken 14 days before the start of treatment and on day 55, when the monkeys were euthanized.

[5] = Kidney function, BUN, urine protein to creatinine ratio in cynomolgus monkeys (Example 46); type: in vivo; settings: for Urine protein/creatinine ratio: day 49
Description: as §1
To evaluate the impact of ISIS oligonucleotides on kidney function, urine samples were collected on different days. […] The ratio of urine protein to creatinine in urine samples after antisense oligonucleotide treatment was also calculated for day 49 and results are presented in Table 156. As observed in Tables 155 and 156, there were no significant increases in any of the kidney metabolic markers after antisense oligonucleotide treatment.

[6] = day-14 (before start of treatment)
[7] = Day −5 (before start of treatment)
[8] = Day −14 (before start of treatment)

With “417003 (antisense TGGTGCACAGTTTCTGGCAG; 2-13-5 gapmer chemistry, further chemistry not given here) [compound 417003]” the IC50 (human Factor 11 mRNA [1]) was 17 nM, the “percent inhibition of Factor 11 mRNA relative to untreated control cells” value (human Factor 11 mRNA [1]; 2.3 nM) was 11% and the “percent inhibition of Factor 11 mRNA relative to untreated control cells” value (human Factor 11 mRNA [1]; 4.7 nM) was 28%. For the same substance, the “percent inhibition of Factor 11 mRNA relative to untreated control cells” value (human Factor 11 mRNA [1]; 9.4 nM) was 40%, the “percent inhibition of Factor 11 mRNA relative to untreated control cells” value (human Factor 11 mRNA [1]; 18.75 nM) was 40% and the “percent inhibition of Factor 11 mRNA relative to untreated control cells” value (human Factor 11 mRNA [1]; 37.5 nM) was 63%. The “percent inhibition of Factor 11 mRNA relative to untreated control cells” value (human Factor 11 mRNA [1]; 75 nM) was 58%, the “Percent change in kidney weight” value ([2]; 2 weeks) was −9% and the “Percent change in liver weight” value ([2]; 2 weeks) was “+8%”. For the same substance, the “Percent change in spleen weight” value ([2]; 2 weeks) was “+12%”, the “Percent change in kidney weight” value ([2]; 4 weeks) was −2% and the “Percent change in liver weight” value ([2]; 4 weeks) was “+42%”. For the same substance, the “Percent change in spleen weight” value ([2]; 4 weeks) was “+101%”, the “Percent change in kidney weight” value ([2]; 6 weeks) was −1% and the “Percent change in liver weight” value ([2]; 6 weeks) was “+32%”. The “Percent change in spleen weight” value ([2]; 6 weeks) was “+98%”, the IC50 (human Factor 11 mRNA [3]) was 11 nM and the “percent inhibition of human Factor 11 mRNA relative to untreated control cells” value (human Factor 11 mRNA [3]; 2.34 nM) was 6%. For the same substance, the “percent inhibition of human Factor 11 mRNA relative to untreated control cells” value (human Factor 11 mRNA [3]; 4.69 nM) was 29%, the “percent inhibition of human Factor 11 mRNA relative to untreated control cells” value (human Factor 11 mRNA [3]; 9.375 nM) was 48% and the “percent inhibition of human Factor 11 mRNA relative to untreated control cells” value (human Factor 11 mRNA [3]; 18.75 nM) was 64%. The “percent inhibition of human Factor 11 mRNA relative to untreated control cells” value (human Factor 11 mRNA [3]; 37.5 nM) was 73% and the “percent inhibition of human Factor 11 mRNA relative to untreated control cells” value (human Factor 11 mRNA [3]; 75 nM) was 82%.
In the case of “ISIS 416850: MOE gapmer, nucleobases 1275 to 1318 of SEQ ID NO: 1 (Table 8) (antisense TGCACAGTTTCTGGCAGGCC; MOE gapmer, wing and gap sizes not given here)”, the IFN-γ level ([4]; day 55) is reported as 19 pg/mL, the IL-1ß level ([4]; day 55) is reported as 106 pg/mL and the IL-6 level ([4]; day 55) is reported as 1 pg/mL. It also gave an IL-8 level ([4]; day 55) of 620 pg/mL, an MCP-1 level ([4]; day 55) of 887 pg/mL and an MIP-1ß level ([4]; day 55) of 50 pg/mL. The MIP-1α level ([4]; day 55) was 17 pg/mL, the RANTES level ([4]; day 55) was 27503 pg/mL and the TNF-α level ([4]; day 55) was 16 pg/mL. For the same substance, the IFN-γ level [4, 6] was 115 pg/mL, the IL-1ß level [4, 6] was 215 pg/mL and the IL-6 level [4, 6] was 1 pg/mL. For the same substance, the IL-8 level [4, 6] was 45 pg/mL, the MCP-1 level [4, 6] was 434 pg/mL and the MIP-1ß level [4, 6] was 31 pg/mL. It also gave an MIP-1α level [4, 6] of 14 pg/mL, an RANTES level [4, 6] of 4560 pg/mL and a TNF-α level [4, 6] of 4 pg/mL. For the same substance, the BUN levels ([5]; Day 31) was 21 mg/dL, the BUN levels ([5]; Day 55) was 26 mg/dL and the BUN levels [5, 7] was 23 mg/dL. It also gave a BUN levels [5, 8] of 24 mg/dL and a Urine protein/creatinine ratio [5] of 0.08.
With “ISIS 416858: MOE gapmer, nucleobases 1275 to 1318 of SEQ ID NO: 1 (Table 8) (antisense ACGGCATTGGTGCACAGTTT; MOE gapmer, wing and gap sizes not given here)” the IFN-γ level ([4]; day 55) was 9 pg/mL, the IL-1ß level ([4]; day 55) was 28 pg/mL and the IL-6 level ([4]; day 55) was 1 pg/mL. It also gave an IL-8 level ([4]; day 55) of 167 pg/mL, an MCP-1 level ([4]; day 55) of 512 pg/mL and an MIP-1ß level ([4]; day 55) of 47 pg/mL. It also gave an MIP-1α level ([4]; day 55) of 11 pg/mL, an RANTES level ([4]; day 55) of 5925 pg/mL and a TNF-α level ([4]; day 55) of 15 pg/mL. For the same substance, the IFN-γ level [4, 6] was 32 pg/mL, the IL-1ß level [4, 6] was 103 pg/mL and the IL-6 level [4, 6] was 0 pg/mL. The IL-8 level [4, 6] was 224 pg/mL, the MCP-1 level [4, 6] was 328 pg/mL and the MIP-1ß level [4, 6] was 37 pg/mL. For the same substance, the MIP-1α level [4, 6] was 11 pg/mL, the RANTES level [4, 6] was 6521 pg/mL and the TNF-α level [4, 6] was 4 pg/mL. The BUN levels ([5]; Day 31) was 23 mg/dL, the BUN levels ([5]; Day 55) was 24 mg/dL and the BUN levels [5, 7] was 24 mg/dL. It also gave a BUN levels [5, 8] of 25 mg/dL and a Urine protein/creatinine ratio [5] of 0.05.
